Data reported in US7629126B2, “PIM-3 kinase as a target for type 2 diabetes mellitus” (Sanofi-Aventis Deutschland GmbH, priority 2002, dated 2009).
Values joined by “and” are separate entries in the source; they are usually repeats but may differ in a detail not shown here. Equal values may be shown once.

Assays:
[1] = tested on: PIM-3; assay: Gene expression of PIM-3 in 3T3-L1 adipocytes treated with antidiabetic drugs (PPARγ agonists), Affymetrix array; format: cell-based, murine
Procedure: 3T3-L1 preadipocytes were grown at 37° C. in 10% CO2 in Dulbecco's modified Eagle's medium (DMEM) containing 1 g/l glucose and 10% fetal calf serum (FCS). For differentiation into mature adipocytes, confluent preadipocytes were cultured for four days in DMEM supplemented with 4.5 g/l glucose, 10% FCS, 50 μg/ml ascorbic acid, 1 μM biotin, 17 μM pantothenic acid (=basal medium), 500 μM 3-isobutylmethylxanthine, 0.25 μM dexamethasone and 1 μg/ml human recombinant insulin. During the four day treatment the medium was changed once.
Differentiated 3T3-L1 cells were maintained in basal medium for one additional day and subsequently kept in serum-free basal medium for four hours. Then, PPARγ agonists diluted in basal medium were added to the adipocytes as described below centrations and conditions see table 5):
RNA was isolated using the TRIzol reagent (Life Technologies, Karlsruhe, Germany) and treated with DNase I by applying the DNA-free kit (Ambion, Austin, Tex., US).
Further purification of the RNA was achieved using the RNeasy mini kit (Qiagen, Hilden, Germany) and quality/quantity control was done with the 2100Bioanalyzer (Agilent, Böblingen, Germany). 10 μg of total RNA was converted into biotinylated cRNA according to the GeneChip expression analysis technical manual (Affymetrix, Santa Clara, Calif., US). Briefly, first and second strand synthesis was performed by applying the SuperScript double stranded cDNA synthesis kit (Life Technologies, Kardsruhe, Germany) and biotin labeled cRNA was produced with the BioArray RNA transcript labeling kit (Enzo Diagnostics, Framingdale, N.Y., US). 10 μg of cRNA was fragmented by heat, added to the GeneChip eukaryotic hybridization control solution (Affymetrix) and hybridized to a GeneChip MG-U74Av2 array (Affymetrix) by rotating for 16 hours at 45° C. Washing, staining and scanning of the array was carried outwith standard procedures using the hardware provided by Affymetrix. Raw data was analyzed by applying the microarray suite version 4.0.1 software (Affymetrix, see above).
The entire experiment was repeated twice to provide three biological replicates.
Data analysis including the estimation of fold changes was performed as described above. Fold change values for PIM-3 were obtained by comparing the compound treated samples against the untreated controls for each time point.

[2] = tested on: ZDF rats; assay: HbA1c as marker of long-term blood glucose in ZDF rats treated with Rosiglitazone; format: in vivo, rat; conditions: ZDF rats treated 14 weeks, 3 mg/kg/day, single animals R1-R5
Procedure: (§1) Zucker Diabetic Fatty (ZDF/Gmi.TM.−fa/fa) male rats as well as their lean fa+/fa− counterparts, aged 5 weeks (control 1-5, ZDF 1-10)were obtained from Genetic Models Inc. (Indianapolis, Ind.). The rats were given free access to food and water. The ZDF animals were split into 2 groups: group 1(animals ZDF 1-5) was not treated with any agent, whereas the second group was treated for 14 weeks with the antidiabetic drug Rosiglitazone (3 mg/kg/day, animals 6-10, Rosi 1-5,). For the collection of epididymal fat pads and also blood samples, in each case 5 animals were sacrificed by cervical dislocation. To monitor the success of the antidiabetic treatment, HbA1c as marker of long-term blood glucose levels were measured by standard methods after finishing of the experiment.

[3] = tested on: Pim-3; assay: Gene expression of Pim-3 in epididymal adipose tissue of ZDF rats treated with anti-diabetic drugs (PPARγ agonists); format: in vivo, rat; conditions: ZDF rats 20 weeks old, 3 mg/kg/day for 14 weeks, single animals Rosi 1-5 vs ZDF 1-5
Procedure: as §1
Collection of epididymal adipose tissue, RNA isolation and Affymetrix experiments were performed as described in experiment 1. Data analysis included the comparison of expression data of samples derived from the lean control animals versus the untreated ZDF rats as well as the comparison of the expression data derived from Rosiglitazone treated ZDF animals versus non-treated ZDF animals. […] Fold changes of gene expression for Pim-3 were analyzed using the Affymetlrix qualifier AF086624_S_AT.

[4] = 1 μM, 6 hours, Table 6a (replicate 1)
[5] = 1 μM, 6 hours, Table b (replicate 2)
[6] = 1 μM, 6 hours, Table c (replicate 3)
[7] = 1 μM, 24 hours, Table 6a (replicate 1)
[8] = 1 μM, 24 hours, Table b (replicate 2)
[9] = 1 μM, 24 hours, Table c (replicate 3)
[10] = 1 μM, 48 hours, Table 6a (replicate 1)
[11] = 1 μM, 48 hours, Table b (replicate 2)
[12] = 1 μM, 48 hours, Table c (replicate 3)
[13] = 5 μM, 6 hours, Table 6a (replicate 1)
[14] = 5 μM, 6 hours, Table b (replicate 2)
[15] = 5 μM, 6 hours, Table c (replicate 3)
[16] = 5 μM, 24 hours, Table 6a (replicate 1)
[17] = 5 μM, 24 hours, Table b (replicate 2)
[18] = 5 μM, 24 hours, Table c (replicate 3)
[19] = 5 μM, 48 hours, Table 6a (replicate 1)
[20] = 5 μM, 48 hours, Table b (replicate 2)
[21] = 5 μM, 48 hours, Table c (replicate 3)

CN(CCOc1ccc(CC2SC(=O)NC2=O)cc1)c1ccccn1 (centres unmarked) [Rosi, rosiglitazone]
Fold change (PIM-3 gene expression vs DMSO control) [1, 4]: 2.1
Fold change (PIM-3 gene expression vs DMSO control) [1, 5]: 1.5
Fold change (PIM-3 gene expression vs DMSO control) [1, 6]: 2.0
Fold change (PIM-3 gene expression vs DMSO control) [1, 7]: 2.9
Fold change (PIM-3 gene expression vs DMSO control) [1, 8]: 2.2
Fold change (PIM-3 gene expression vs DMSO control) [1, 9]: 1.9
Fold change (PIM-3 gene expression vs DMSO control) [1, 10]: 2.6
Fold change (PIM-3 gene expression vs DMSO control) [1, 11]: 2.0
Fold change (PIM-3 gene expression vs DMSO control) [1, 12]: 2.1
Fold change (PIM-3 gene expression vs DMSO control) [1, 13]: 2.2
Fold change (PIM-3 gene expression vs DMSO control) [1, 14]: 1.3
Fold change (PIM-3 gene expression vs DMSO control) [1, 15]: 2.2
Fold change (PIM-3 gene expression vs DMSO control) [1, 16]: 2.9
Fold change (PIM-3 gene expression vs DMSO control) [1, 17]: 1.9
Fold change (PIM-3 gene expression vs DMSO control) [1, 18]: 1.3
Fold change (PIM-3 gene expression vs DMSO control) [1, 19]: 2.6
Fold change (PIM-3 gene expression vs DMSO control) [1, 20]: 1.9
Fold change (PIM-3 gene expression vs DMSO control) [1, 21]: 2.0
HbA1c (%) [2]: 4.30% and 4.27% and 4.14% (2×) and 4.13%
Fold change (Pim-3 gene expression, treated ZDF rats vs untreated ZDF rats) [3]: 1.6 (2×) and 1.3 and 1.5 and 1.4

Cc1c(C)c2c(c(C)c1O)CCC(C)(COc1ccc(CC3SC(=O)NC3=O)cc1)O2 (centres unmarked) [Tro, troglitazone]
Fold change (PIM-3 gene expression vs DMSO control) [1, 4]: 1.7
Fold change (PIM-3 gene expression vs DMSO control) [1, 5]: 1.7
Fold change (PIM-3 gene expression vs DMSO control) [1, 6]: 1.8
Fold change (PIM-3 gene expression vs DMSO control) [1, 7]: 1.8
Fold change (PIM-3 gene expression vs DMSO control) [1, 8]: 1.6
Fold change (PIM-3 gene expression vs DMSO control) [1, 9]: 1.6
Fold change (PIM-3 gene expression vs DMSO control) [1, 10]: 1.8
Fold change (PIM-3 gene expression vs DMSO control) [1, 11]: 1.6
Fold change (PIM-3 gene expression vs DMSO control) [1, 12]: 1.6
Fold change (PIM-3 gene expression vs DMSO control) [1, 13]: 2.1
Fold change (PIM-3 gene expression vs DMSO control) [1, 14]: 1.7
Fold change (PIM-3 gene expression vs DMSO control) [1, 15]: 2.3
Fold change (PIM-3 gene expression vs DMSO control) [1, 16]: 2.7
Fold change (PIM-3 gene expression vs DMSO control) [1, 17]: 1.9
Fold change (PIM-3 gene expression vs DMSO control) [1, 18]: 2.0
Fold change (PIM-3 gene expression vs DMSO control) [1, 19]: 2.4
Fold change (PIM-3 gene expression vs DMSO control) [1, 20]: 1.9
Fold change (PIM-3 gene expression vs DMSO control) [1, 21]: 2.3
